Assay results reported in patent US20110105472A1, “Diaminopyrimidines as crop protection agents” (Bayer CropScience AG, priority 2008, published 2011).

assay: logP by LC-MS, method [b], acidic range pH 2.7; format: physicochemical; details: not given

| log p | Compound |
| --- | --- |
| 1.73 | COC(=O)Nc1cccc(Nc2ncc(Cl)c(NC3CCC3)n2)c1 [Compound 139] |

same assay, conditions: method [b], LC-MS, acidic range pH 2.7

| Compound | log p |
| --- | --- |
| CCS(=O)(=O)c1nc2ccc(Nc3ncc(Br)c(NC4CCC4)n3)cc2s1 [Compound 3] | 2.91[b] |

same assay, conditions: pH 2.7

| log p | Compound |
| --- | --- |
| 1.59[b] | Brc1cnc(Nc2ccc3[nH]ccc3c2)nc1NC1CCC1 [Compound 1] |
| 1.7[b] | Brc1cnc(Nc2ccc3cc[nH]c3c2)nc1NC1CCC1 [Compound 2] |
| 1.49[b] | O=C1CCc2cc(Nc3ncc(Br)c(NC4CCC4)n3)ccc2N1 [Compound 4] |
| 1.61[b] | O=C1COc2ccc(Nc3ncc(Br)c(NC4CCC4)n3)cc2N1 [Compound 6] |
| 2.11[b] | Cc1nc2cc(Nc3ncc(Br)c(NC4CCC4)n3)ccc2s1 [Compound 10] |
| 1.78[b] | CC(=O)N1CCc2ccc(Nc3ncc(Br)c(NC4CCC4)n3)cc21 [Compound 12] |
| 1.83[b] | CN1C(=O)COc2ccc(Nc3ncc(Br)c(NC4CCC4)n3)cc21 [Compound 13] |
| 1.75[b] | O=C1CCCc2ccc(Nc3ncc(Br)c(NC4CCC4)n3)cc2N1 [Compound 15] |
| 1.61[b] | O=c1[nH]c2cc(Nc3ncc(Br)c(NC4CCC4)n3)ccc2o1 [Compound 16] |
| 1.68[b] | CC(=O)N1CCc2cc(Nc3ncc(Br)c(NC4CCC4)n3)ccc21 [Compound 17] |
| 4.56[b] | FC1(F)Oc2ccc(Nc3ncc(Br)c(NC4CCC4)n3)cc2OC1(F)F [Compound 18] |
| 1.87[b] | Brc1cnc(Nc2ccc3c(c2)OCO3)nc1NC1CCC1 [Compound 19] |
| 2.41[b] | COc1cc(Nc2ncc(Br)c(NC3CCC3)n2)ccc1F [Compound 31] |
| 2.28[b] | CC(=O)c1cccc(Nc2ncc(Br)c(NC3CCC3)n2)c1 [Compound 32] |
| 2.8[b] | Brc1cnc(Nc2cccc(-c3nccs3)c2)nc1NC1CCC1 [Compound 33] |
| 2.17[b] | CCOc1ccc(Nc2ncc(Br)c(NC3CCC3)n2)cc1 [Compound 35] |
| 2.2[b] | COCc1cccc(Nc2ncc(Br)c(NC3CCC3)n2)c1 [Compound 39] |
| 3.13[b] | CC(C)c1ccc(Nc2ncc(Br)c(NC3CCC3)n2)cc1 [Compound 40] |
| 2.11[b] | COCC(C)Oc1ccc(Nc2ncc(Br)c(NC3CCC3)n2)cc1 (stereo not drawn) [Compound 41] |
| 2.05[b] | COCc1cccc(Nc2ncc(Cl)c(NC3CCC3)n2)c1 [Compound 42] |
| 1.62[b] | COC(=O)Nc1ccc(Nc2ncc(Br)c(NC3CCC3)n2)cc1 [Compound 46] |
| 2.33[b] | Fc1ccc(Nc2ncc(Br)c(NC3CCC3)n2)cc1 [Compound 49] |
| 2.12[b] | COc1cc(Nc2ncc(Br)c(NC3CCC3)n2)cc(OC)c1 [Compound 53] |
| 1.87[b] | Cc1ccccc1Nc1ncc(Br)c(NC2CCC2)n1 [Compound 60] |
| 2.6[b] | Fc1ccc(Nc2ncc(Br)c(NC3CCC3)n2)cc1 [Compound 62] |
| 3.9[b] | Fc1cc(C(F)(F)F)ccc1Nc1ncc(Br)c(NC2CCC2)n1 [Compound 63] |
| 2.67[b] | N#Cc1cccc(Nc2ncc(Br)c(NC3CCC3)n2)c1 [Compound 64] |

| log p | Compound |
| --- | --- |
| 1.71[b] | COc1ccc(Nc2ncc(Br)c(NC3CCC3)n2)cc1OC [Compound 65] |
| 3.07[b] | Cc1ccc(NS(=O)(=O)c2cc(Nc3ncc(Br)c(NC4CCC4)n3)ccc2C)cc1 [Compound 66] |
| 2.23[b] | COc1ccccc1Nc1ncc(Br)c(NC2CCC2)n1 [Compound 68] |
| 2.95[b] | N#Cc1ccc(Nc2ncc(Br)c(NC3CCC3)n2)cc1 [Compound 70] |
| 4.51[b] | FC(F)(F)Sc1ccc(Nc2ncc(Br)c(NC3CCC3)n2)cc1 [Compound 71] |
| 2.09[b] | O=C(Nc1ccccc1)c1ccc(Nc2ncc(Br)c(NC3CCC3)n2)cc1 [Compound 72] |
| 3.5[b] | CSc1ccc(Nc2ncc(Br)c(NC3CCC3)n2)cc1Cl [Compound 73] |
| 2.26[b] | Brc1cnc(Nc2ccc(-c3cscn3)cc2)nc1NC1CCC1 [Compound 74] |
| 2.5[b] | FC(F)Oc1ccc(Nc2ncc(Br)c(NC3CCC3)n2)cc1 [Compound 75] |
| 4.98[b] | Clc1cc(Cl)cc(Nc2ncc(Br)c(NC3CCC3)n2)c1 [Compound 76] |
| 2.77[b] | CCOC(=O)c1cccc(Nc2ncc(Br)c(NC3CCC3)n2)c1 [Compound 77] |
| 3.59[b] | COC(=O)c1ccc(Nc2ncc(Br)c(NC3CCC3)n2)cc1Cl [Compound 78] |
| 2.02[b] | NS(=O)(=O)c1cc(Nc2ncc(Br)c(NC3CCC3)n2)ccc1Cl [Compound 79] |
| 1.55[b] | Oc1ccc(Nc2ncc(Br)c(NC3CCC3)n2)c(F)c1 [Compound 80] |
| 4.72[b] | FC(F)(F)Oc1ccc(Nc2ncc(Br)c(NC3CCC3)n2)cc1Cl [Compound 81] |
| 1.71[b] | C=CC(=O)Nc1cccc(Nc2ncc(Br)c(NC3CCC3)n2)c1 [Compound 82] |
| 1.99[b] | C=CCNC(=O)c1ccc(Nc2ncc(Br)c(NC3CCC3)n2)cc1 [Compound 83] |
| 1.75[b] | COc1cc(Nc2ncc(Br)c(NC3CCC3)n2)ccc1NS(C)(=O)=O [Compound 84] |
| 1.61[b] | CS(=O)(=O)Nc1ccc(Nc2ncc(Br)c(NC3CCC3)n2)cc1 [Compound 85] |
| 1.71[b] | CNS(=O)(=O)Cc1ccc(Nc2ncc(Br)c(NC3CCC3)n2)cc1 [Compound 86] |
| 2.7[b] | CN(C)S(=O)(=O)Oc1cccc(Nc2ncc(Br)c(NC3CCC3)n2)c1 [Compound 89] |
| 1.59[b] | COc1cc(Nc2ncc(Br)c(NC3CCC3)n2)ccc1NC(C)=O [Compound 90] |
| 2.73[b] | CN(C)S(=O)(=O)c1ccc(Nc2ncc(Br)c(NC3CCC3)n2)cc1 [Compound 91] |
| 2.02[b] | CC(C)(C)C(=O)Nc1ccc(Nc2ncc(Br)c(NC3CCC3)n2)cc1 [Compound 92] |
| 1.92[b] | CCN(C(C)=O)c1ccc(Nc2ncc(Br)c(NC3CCC3)n2)cc1 [Compound 93] |
| 1.73[b] | CC(=O)N(C)c1ccc(Nc2ncc(Br)c(NC3CCC3)n2)cc1 [Compound 94] |
| 2.21[b] | O=C(Nc1ccc(Nc2ncc(Br)c(NC3CCC3)n2)cc1)C(F)(F)F [Compound 95] |

| log p | Compound |
| --- | --- |
| 1.71[b] | CCC(=O)Nc1cccc(Nc2ncc(Br)c(NC3CCC3)n2)c1 [Compound 97] |
| 1.9[b] | C=C(C)C(=O)Nc1cccc(Nc2ncc(Br)c(NC3CCC3)n2)c1 [Compound 98] |
| 2.11[b] | CC(C)(C)C(=O)Nc1cccc(Nc2ncc(Br)c(NC3CCC3)n2)c1 [Compound 99] |
| 1.54[b] | CNC(=O)c1ccc(Nc2ncc(Br)c(NC3CCC3)n2)cc1 [Compound 101] |
| 2.46[b] | CC(C)(C)NC(=O)c1ccc(Nc2ncc(Br)c(NC3CCC3)n2)cc1 [Compound 102] |
| 2.63[b] | CC(C)(C)C(=O)Cc1ccc(Nc2ncc(Br)c(NC3CCC3)n2)cc1 [Compound 104] |
| 2.04[b] | CCOC(=O)Nc1cccc(Nc2ncc(Br)c(NC3CCC3)n2)c1 [Compound 105] |
| 1.83[b] | COC(=O)Nc1cccc(Nc2ncc(Br)c(NC3CCC3)n2)c1 [Compound 106] |
| 1.55[b] | COc1cc(Nc2ncc(Cl)c(NC3CCC3)n2)ccc1NC(C)=O [Compound 108] |
| 1.75[b] | COc1ccc(Nc2ncc(Cl)c(NC3CCC3)n2)cc1 [Compound 110] |
| 2.77[b] | N#Cc1ccc(Nc2ncc(Cl)c(NC3CCC3)n2)cc1 [Compound 111] |
| 1.94[b] | CC(C)(C)C(=O)Nc1ccc(Nc2ncc(Cl)c(NC3CCC3)n2)cc1 [Compound 116] |
| 1.43[b] | CC(=O)Nc1ccc(Nc2ncc(Cl)c(NC3CCC3)n2)cc1 [Compound 117] |
| 1.83[b] | CCN(C(C)=O)c1ccc(Nc2ncc(Cl)c(NC3CCC3)n2)cc1 [Compound 119] |
| 2.04[b] | CC(C)(C)C(=O)Nc1cccc(Nc2ncc(Cl)c(NC3CCC3)n2)c1 [Compound 125] |
| 1.5[b] | CNC(=O)c1ccc(Nc2ncc(Cl)c(NC3CCC3)n2)cc1 [Compound 126] |
| 1.61[b] | COC(=O)Nc1ccc(Nc2ncc(Cl)c(NC3CCC3)n2)cc1 [Compound 135] |
| 1.94[b] | CCOC(=O)Nc1cccc(Nc2ncc(Cl)c(NC3CCC3)n2)c1 [Compound 137] |
| 1.92[b] | CC1(C(=O)Nc2cccc(Nc3ncc(Cl)c(NC4CCC4)n3)c2)CC1 [Compound 140] |
| 1.97[b] | CC(C)(CF)C(=O)Nc1cccc(Nc2ncc(Cl)c(NC3CCC3)n2)c1 [Compound 141] |
| 2.19[b] | CC(C)(C)NC(=O)Cc1cccc(Nc2ncc(Br)c(NC3CCC3)n2)c1 [Compound 143] |
| 2.46[b] | O=S(=O)(c1cccc(Nc2ncc(Br)c(NC3CCC3)n2)c1)N1CCOCC1 [Compound 147] |
| 1.68[b] | CN(C=O)c1ccc(Nc2ncc(Br)c(NC3CCC3)n2)cc1 [Compound 153] |
| 2.46[b] | CN(C)S(=O)(=O)Oc1ccc(Nc2ncc(Br)c(NC3CCC3)n2)cc1 [Compound 160] |
| 2.36[b] | CC(C)(C)OC(=O)Nc1ccc(Nc2ncc(Br)c(NC3CCC3)n2)cc1 [Compound 162] |

| Compound | log p |
| --- | --- |
| CCc1nc2cc(Nc3ncc(Br)c(NC4CCC4)n3)ccc2o1 [Compound 21] | 2.06[b] |
| Cc1cc(C)c(C)c(Nc2ncc(Br)c(NC3CCC3)n2)c1 [Compound 61] | 2.57[b] |
| COc1cccc(Nc2ncc(Cl)c(NC3CCC3)n2)c1 [Compound 109] | 2.06[b] |
| CNC(=O)Oc1cccc(Nc2ncc(Cl)c(NC3CCC3)n2)c1 [Compound 138] | 1.64[b] |
| CC(C)Sc1cccc(Nc2ncc(Cl)c(NC3CCC3)n2)c1 [Compound 146] | 3.62[b] |
| CC(=O)c1cc(Nc2ncc(Br)c(NC3CCC3)n2)ccc1Cl [Compound 150] | 2.95[b] |
| O=CNc1ccc(Nc2ncc(Br)c(NC3CCC3)n2)cc1 [Compound 152] | 1.47[b] |
| O=CNc1cccc(Nc2ncc(Br)c(NC3CCC3)n2)c1 [Compound 154] | 1.58[b] |
| CN(C)S(=O)(=O)c1cccc(Nc2ncc(Br)c(NC3CCC3)n2)c1 [Compound 157] | 2.53[b] |
